Reference: patent publication US5110810A, “Method of using dehydroepiandrosterone and dehydroepiandrosterone-sulfate as inhibitors of platelet aggregation” (Virginia Commonwealth University, priority 1991, dated 1992)
Like-named read-outs stand apart in the source and are kept apart here.

Legend:
myocardial infarction = conditions: large clinical studies; cited from earlier work
platelets [1] = conditions: cited from earlier work
atherosclerotic plaque = conditions: 2% cholesterol diet, balloon abrasion, 0.5% DHEA, cited from earlier work
intracellular sulfatases = conditions: through the action of intracellular sulfatases; cited from earlier work
[2] = tested on: oxidant injury in isolated rabbit lungs; conditions: cited from earlier work
blood platelets = test: Arachidonic acid induced platelet aggregation (turbidimetric) in volunteers taking DHEA; format: in vivo, human
From the text: (§1) Referring now to the drawings and, more particularly to FIG. 1, two sample aggregometer tracings are shown which help illustrate the methods used by the inventors to analyze turbidimetric data. Aggregometers are well known research tools and the aggregometer used in the experiments discussed below was a Sienco dual chamber platelet aggregometer. A blood sample which is to be analyzed is drawn from volunteer donors into a 1/8 volume of acid-citrate-dextrose (an anticoagulant used to keep platelets from aggregation during preparative stages). For the in vitro experiments discussed below, the volunteer donors had not taken any medication for ten days prior to submitting the blood sample. The blood is then centrifuged at low speed to sediment red and white blood cells, leaving a fraction enriched in platelets called platelet-rich plasma (PRP). The platelet count was determined electronically using a Coulter counter The final concentration of platelets for a test sample was adjusted to 250,000 platelets/μL fluid by the addition of platelet-poor plasma.
(§2) The aggregometer acts essentially like a spectrophotometer to measure the turbidity of the platelet suspension as a function of the change in light transmission recorded over time. Prior to making turbidimetric measurements, the test samples were heated to 37° C. (body temperature) and stirred at a constant rate. Inhibitors and/or agonists are added to the test sample in very small quantities so as to minimize the dilutional effect. An important object of the present invention was showing that DHEA and DHEA-S are inhibitors of platelet aggregation. Arachidonic acid, available from Biodata Corp of Hatboro, Pennsylvania, is a well known agonist of platelets (i.e., the addition of arachidonic acid to platelets causes aggregation). In the experiments, DHEA and DHEA-S were added to the test sample prior to adding the arachidonic acid so that the platelets could be mixed with the inhibitor before any aggregation initiation caused by the arachidonic acid agonist occurred. Typically, 0.2-0.4 mM arachidonic acid was used to start platelet aggregation.
The aggregometer was calibrated such that the test samples, which contained 250,000 platelets/μl fluid, allowed 0% light transmission while Platelet Poor Plasma, which is essentially devoid of platelets, allowed 100% light transmission. […]
The overall rate of aggregation is determined in part by the LAG time and in part by the rate of the rapid aggregation phase. While the LAG time can easily be determined from the turbidimetric spectra, the rate of rapid aggregation phase is technically difficult to measure. […] Therefore, the experiments discussed below have primarily utilized the T1/2MAX measurement to quantitatively analyze the affect of DHEA and DHEA-S as platelet aggregation inhibitors. […]

[3] = Serum DHEA and DHEA-S levels by radio-immunoassay (RIA), oral DHEA in normal male volunteers; format: in vivo; conditions: human, 300 mg/day, DHEA group, 300 mg per day orally (100 mg three times a day), second week, read-out: mean serum DHEA level
Experimental: In vivo experimentation has been conducted with DHEA using a test group of ten male human being subjects. The in vivo experimentation comprised a double blind placebo controlled trial where ten normal male volunteers whose ages ranged between 22 and 37 years old were randomly divided into two five membered groups where the average age for each group was 25 years. In the in vivo experiment, the DHEA group received 300 mg of DHEA per day in the form of 100 mg capsules taken orally three times a day. The placebo group took placebo capsules which looked identical to the capsules containing DHEA three times a day. The DHEA and placebo capsules were prepared by the investigational pharmacy at the Medical College of Virginia and the code identifying which patients took DHEA and which took placebo was maintained by the pharmacy until the study was completed such that neither the patients nor the investigators were aware of who was taking DHEA or placebo. Each of the participants in the trial were told not to alter their lifestyles for the duration of the study and at the conclusion of the experiment each participant said that they had not done so. […]
Serum DHEA and DHEA-S levels for the patients was determined before the experiment began and at several later times during the experiment. […]

aortic fatty streaks = conditions: 0.5% cholesterol and 0.5% DHEA diet; two months; cited from earlier work
[4] = tested on: glucose-6-phosphate dehydrogenase; conditions: cited from earlier work
[5] = tested on: Thromboxane A2 (TxA2) synthesis, measured as Thromboxane B2 (TxB2); test: Thromboxane production (TxB2 RIA) in platelet rich plasma after arachidonic acid; format: cell-based, human; conditions: for TxB2 produced: approximately three minutes incubation
From the text: As discussed above, activation of platelets by arachidonic acid typically results in the generation of Thromboxane A2 (TxA2) The extent of TxA2 generated can be measured by radioimmunoassay (RIA) of its stable breakdown product Thromboxane B2 (TxB2) (see, JW Aiken, "Arachidonic Acid Metabolism and the Cardiovascular System" in Platelets and Prostaglandins in Cardiovascular Disease, J Mehta, P Mehta eds. Futura Publishing Co., Mt. Kisco, NY 1981). […] The platelet aggregation reaction was terminated at maximal aggregation or at four minutes, which ever occurred […], by the addition of 10 μM Indomethacin and 5.0 mM ethylenediaminetetraacetic acid (EDTA). Indomethacin and EDTA are commercially available reagents and were obtained from the Sigma Chemical Company. After adding the Indomethacin and EDTA reagents, the cuvettes containing the test sample were immediately placed on ice to cool. The test samples were then spun at a high speed in an Epindorf, Model 5415 micro-centrifuge, available from Brinkman Instruments, to sediment the platelets. Afterwards, plasma was removed from each sample. The TXB2 content was then assayed using commercial RIA kits available from Advanced Magnetics, Inc. of Massachussetts.

[6] = human patients; cited from earlier work
platelets [7] = test: In vitro turbidimetric arachidonic acid induced platelet aggregation in platelet rich plasma; format: cell-based, human
From the text: as §1, §2
The aggregometer was calibrated such that the test samples, which contained 250,000 platelets/μl fluid, allowed 0% light transmission while Platelet Poor Plasma, which is essentially devoid of platelets, allowed 100% light transmission. […] The time to the nadir in the aggregometer tracing is called the "LAG" time. After the LAG time has passed, the platelets undergo a rapid phase of aggregation.
The overall rate of aggregation is determined in part by the LAG time and in part by the rate of the rapid aggregation phase. While the LAG time can easily be determined from the turbidimetric spectra, the rate of rapid aggregation phase is technically difficult to measure. […] Therefore, the experiments discussed below have primarily utilized the T1/2MAX measurement to quantitatively analyze the affect of DHEA and DHEA-S as platelet aggregation inhibitors.
DHEA-S is available from the Sigma Chemical Company in powder form. In the in vitro experiments, blood samples were taken from several young healthy donors taking no medications. Platelet rich plasma was prepared as described above for each test sample and the concentration of platelets in the test samples was adjusted to 250,000 platelets/μl fluid. Aggregation of the platelets in the test samples was initiated with 0.2 to 0.4 […] of arachidonic acid (there was a variability in the amount of arachidonic acid used among donors; however, the amount used was near the minimum that would consistently initiate aggregation). In all aggregation experiments 0.3 cc of platelet rich plasma was used and the test sample volume placed in the aggregometer ranged between 10 μl to 30 μl.
In the first in vitro experiment, different concentrations of DHEA-S were added to test samples and the rate of aggregation was monitored after the addition of arachidonic acid. […]

[8] = tested on: cardiovascular disease mortality; conditions: increase in (endogenous) DHEA-S level of 100 μg/dL; adjusted for other risk factors; p <0.05; cited from earlier work
platelets [9] = conditions: cited from earlier work; remark: listed apart in the source

CC(=O)Oc1ccccc1C(=O)O [aspirin]
incidence of myocardial infarction (myocardial infarction): reduce the incidence of myocardial infarction
initial platelet adhesion (platelets [1]): does not inhibit initial platelet adhesion
platelet's role in atherogenesis (platelets [1]): does not appear to have an affect

C[C@]12CC[C@H](O)CC1=CC[C@@H]1[C@@H]2CC[C@]2(C)C(=O)CC[C@@H]12 [DHEA, dehydroepiandrosterone]
individual reduction of plaque size vs serum level of DHEA (atherosclerotic plaque): inversely proportional to the serum level of DHEA attained
reduction in plaque size (atherosclerotic plaque; vs rabbits not receiving DHEA): 50%
interconversion of DHEA with its sulfate ester (intracellular sulfatases): readily interconvertible
thromboxane B2 production [2]: unchanged
lung edema and pulmonary hypertension ([2]; platelets pretreated with DHEA): augmentation of the lung edema and pulmonary hypertension
aggregation response, fifth DHEA patient (blood platelets; 300 mg DHEA per day orally): no change
arachidonic acid induced platelet aggregation, one of the four responding subjects (blood platelets; 300 mg DHEA per day orally): completely inhibited
patients who developed a delay in the rate of aggregation or an increase in the minimal concentration of arachidonic acid required to initiate aggregation (blood platelets; 300 mg DHEA per day orally): four of the five patients
T1/2MAX and LAG curves vs arachidonic acid concentration (blood platelets; one DHEA treated patient, second week vs baseline (FIG. 3)): shifted to the right and upward
concentration at 336 h [3]: 28.7 ± 13.9 ng/mL
reduction in fatty streak formation, chemical analysis (aortic fatty streaks): 30%
reduction in fatty streak formation, planimetry of the lesions (aortic fatty streaks): 40%
inhibition of glucose-6-phosphate dehydrogenase [4]: specific inhibitor
TxB2 produced ([5]; 3.3 μM DHEA): 46.0 ± 4.0 pg/mL
TxB2 produced ([5]; 6.7 μM DHEA): 27.3 ± 1.1 pg/mL
TxB2 produced ([5]; 10.0 μM DHEA): 21.8 ± 1.8 pg/mL
TxB2 produced vs concentration ([5]; increasing concentrations of DHEA (FIG. 7)): proportional decline in TxB2 produced
TxA2 synthesis ([5]; presence of added DHEA (FIG. 7)): net inhibition of TxA2 synthesis
HDL cholesterol levels [6]: without affecting HDL cholesterol levels
LDL cholesterol levels [6]: lower LDL cholesterol levels
body fat mass [6]: reduce body fat mass
muscle mass [6]: increase muscle mass
serum apilipoprotein B levels [6]: lower serum apilipoprotein B levels
tissue sensitivity to insulin [6]: not affect tissue sensitivity to insulin
platelet aggregation on pre-incubation (platelets [7]; 3.3 μM, pre-incubation 0 to 5.0 minutes (FIG. 6)): prolong and eventually inhibit platelet aggregation

CC12CCC3C(CC=C4CC(OS(=O)(=O)O)CCC43C)C1CCC2=O (stereo not drawn) [DHEA-S, dehydroepiandrosterone-sulfate]
reduction in mortality from cardiovascular disease [8]: 48%
thromboxane production ([5]; treatment of blood with DHEA-S): reduce thromboxane production
T1/2MAX and LAG vs pre-incubation time (platelets [7]; 3.3 μM DHEA-S (FIG. 5)): the greater the increase in T1/2MAX and LAG times
T1/2MAX and LAG vs baseline (platelets [7]; 3.3 μM DHEA-S, 0 time pre-incubation (FIG. 5)): did increase the T1/2MAX and LAG from baseline
aggregation after 5.0 minute pre-incubation (platelets [7]; 3.3 μM DHEA-S, 5.0 minutes, in most cases (FIG. 6)): complete inhibition of aggregation
time for T1/2MAX and LAG (platelets [7]; 10.0 μM DHEA-S, three minutes incubation): not determinable
platelet aggregation response to increasing DHEA-S concentration (platelets [7]; incubated three minutes before arachidonic acid, most test samples): dose dependent response
T1/2MAX and LAG times with increasing concentrations (platelets [7]; three minutes incubation (FIG. 4)): increase with increasing concentrations of DHEA-S

O=[N+]([O-])c1cc(Cl)cc([N+](=O)[O-])c1 [CDNB, 1-chloro-3,5-dinitrobenzene]
GSH content of platelets (platelets [9]): chemically depletes GSH
HMPS pathway stimulation by GSH-depleted platelets (platelets [9]): do not stimulate the HMPS pathway
cytoskeletal protein polymerization of GSH-depleted platelets (platelets [9]): faster cytoskeletal protein oxidative polymerization but reversible aggregation
sensitivity of GSH-depleted platelets to oxidants (platelets [9]): more sensitive to oxidants
aggregation of GSH-depleted platelets (platelets [9]; higher inducer concentrations): aggregate normally
aggregation of GSH-depleted platelets (platelets [9]; low inducer concentrations, depending on the inducer): increased or depressed aggregation
